The record followed here is patent US9682965B2, “Fumagillol heterocyclic compounds and methods of making and using same” (Zafgen, Inc., priority 2015, dated 2017).

Series [1] concerns Diet Induced Obese (DIO) C57BL/6 mice. Kind of series: 10 day DIO mouse model (body weight, food intake, hematology, blood chemistry). The class given is in vivo. As to conditions: 240 h, read-out: DIO Mouse 10-day weight loss vs vehicle; for inhibition in vivo at 1 mg/kg: 1.0 mpk sc. The method, boiled down:
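DIO C57BL/6 mice on 60% kcal fat diet received compounds subcutaneously once daily for 10 days at 1.0, 0.5, 0.3, 0.1 or 0.03 mpk, in 10% DMSO in water, after 3-day vehicle acclimation. Body weight and food intake were recorded daily. Hematology and blood chemistry were taken on Day 11, 24 h post-final dose.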

The test system of series [2] is Male Sprague Dawley rats on high fat diet. Kind of series: 11 day rat DIO model (body weight, food intake, hematology, blood chemistries). The class given is in vivo. As to conditions: 264 h, read-out: DIO Rat 11-day weight loss vs vehicle. An excerpt:
The objective of this study design is to investigate the efficacy of disclosed compounds in an 11 day rat DIO model used to screen compounds for pharmacologic efficacy on endpoints related to obesity and metabolism. Effects on body weight, food intake, hematology and blood chemistries were the primary readouts of this study design. […] Rats were fed Research Diets D12451 (45% High Fat) and provided water ad libitum. Rats were received and housed in the facility for at least two or three weeks prior to start of test article administration. On Day −4 or −3, rats were randomized into study groups based on body weight and body weights were continued to be recorded daily for the duration of the study. Daily food intake was assessed starting on Study Day −2 by weighing the hopper including the food to avoid loss of food in transfer.
Compounds were formulated into a 100% DMSO stock (at 9 mg/mL) prior to the start, and further diluted into the target working concentration using the vehicle of 10% DMSO in water. Prior to test article administration, starting on Day −3 a dosing acclimation occured with all animals receiving a subcutaneous injection of vehicle (10% DMSO) only for 3 days. Starting on Day 1, test compounds or vehicle were administered based on individual body weight, subcutaneously, once a day for 11 days. All animals were sacrificed on Day 11, approximately 2 hours following the final dosing on Day 11. After sacrifice, whole blood was collected and analyzed for hematology and blood chemistry parameters.
Compounds were tested vs. vehicle at various doses (1.0, 0.5, 0.3, 0.1, 0.03 mpk sc (mg per kg animal weight delivered subcutaneously), and the results are shown in Table 2 below.

Series [3] deals with pregnant Sprague Dawley rats (embryo/fetal development). An excerpt:
Study Summary Rat Embryofetal:
The objective of this study design was to evaluate the potential effects of disclosed compounds on embryo/fetal development when given subcutaneously to pregnant rats once every three days during the critical period of organogenesis (Gestation Days 6-18). Female, Sprague Dawley rats, approximately 10 weeks of age, time bred, were ordered from a certified vendor and housed individually housed in stainless steel cages suspended over flush pans, on a 12-hour light-dark cycle (0700-1900) at 20-26° C. and 30-70% humidity. Rats were fed a standard rodent chow and provided water ad libitum. Rats were received and housed in the facility for a period of approximately 1 to 2 days.
Compounds were formulated using 100% DMSO mixed in Sterile Water for Injection, resulting in 2% DMSO solution in water. If necessary, due to limited solubility of a test article, a higher percentage of DMSO solution in water was used. Groups of 8 mated and presumed pregnant female rats were given subcutaneous doses of vehicle or test article, once every three days, beginning on Gestation Day 6 and ending on Gestation Day 18 (Days 6, 9, 12, 15, and 18), maintained two more days, and then euthanized and necropsied on Gestation Day 20. Body weights was recorded for all animals on Gestation Days 5 (purpose of randomization), 6, 9, 12, 15, 18, and 20 (scheduled euthanasia). Food consumption by weight was recorded on Gestation Days 6, 9, 12, 15, 18, and 20 (scheduled termination).
At necropsy, the dams were examined visually for external abnormalities including palpable masses. The abdominal, thoracic, and cranial cavities and their contents were examined for abnormalities and findings will be recorded. The reproductive tract were examined to record the number of ovarian corpora lutea, the number and location of uterine implantation sites noting the position of the cervix, and the number of early resorptions, late resorptions, live fetuses, and dead fetuses. For dead fetuses and late resorptions, crown-to-rump length and weight were recorded, if possible, and the fetus was discarded. For viable fetuses, weight, sex, and grossly visible external abnormalities were recorded.

Another series concerns the target recombinant human MetAP2 (Homo sapiens (Human), UniProt P50579). Description: recombinant human MetAP2 enzyme inhibition assay. The class given is biochemical. As to conditions: recombinant human MetAP2, MAS peptide substrate, 25 minutes at 25° C. As to the method:
Compounds are tested for their capacity to inhibit recombinant human MetAP2 activity using the following assay.
Flag tagged Human recombinant MetAP2 expressed and isolated for use as the enzyme source. 10 mM stock solutions of compounds were prepared in 100% DMSO and further diluted in 100% DMSO required concentration to 1 mM stocks. The stock compound solutions and DMSO vehicle controls were diluted to target final compound concentrations using assay buffer to a final concentration of 50 mM HEPES containing 100 mM NaCl, pH adjusted to 7.5. The MAS peptide was formulated to a 7.5 mM stock in distilled water and prior to use further diluted 1:4. […] 40 μl of enzyme was mixed with 100 μl of MnCl2 then further diluted in assay buffer to a final concentration of 16 μg/ml. To test for compound effect on MetAP2 enzyme activity, 5 μl of test compound, 10 μl of MAS substrate/amino acid oxidase mixture, 10 μl of MetAP2 was added to test wells in a 384 well black plate with blank wells containing no enzyme, replaced with 10 μl of assay buffer. All compounds were tested in duplicate on two occasions on the same day.
The plate was sealed with a TopSeal A cover and mixed briefly on an orbital mixer at 900 rpm. The plate was incubated for a further 25 minutes at 25° C. A 5× stock of Amplex buffer was prepared (0.25M sodium phosphate, pH 7.4) and stored at 4° C. […] 25 μl detection reagent was added to each well of the test plate, which was re-sealed and mixed briefly on an orbital shaker.

Setting [4] is: DIO mouse, 0.3 mpk sc, once a day for 10 days.
The mark [5] stands for this setting: DIO rat, 0.3 mpk sc, once a day for 11 days.
Where [6] appears, read: 6 mpk, subcutaneous, once every three days, Gestation Days 6-18, pregnant rats.
Setting [7] is: DIO rat, 1.0 mpk sc, once a day for 11 days.
[8] abbreviates: DIO mouse, once a day for 10 days.

pIC50: −log10 of the molar value. Counter-ions that a name gives are not always drawn. Like-named read-outs stand apart in the source and are kept apart here. Where only a bound is given, the exact number is not on record here.

Chain of recombinant human MetAP2 (P50579 whole entry): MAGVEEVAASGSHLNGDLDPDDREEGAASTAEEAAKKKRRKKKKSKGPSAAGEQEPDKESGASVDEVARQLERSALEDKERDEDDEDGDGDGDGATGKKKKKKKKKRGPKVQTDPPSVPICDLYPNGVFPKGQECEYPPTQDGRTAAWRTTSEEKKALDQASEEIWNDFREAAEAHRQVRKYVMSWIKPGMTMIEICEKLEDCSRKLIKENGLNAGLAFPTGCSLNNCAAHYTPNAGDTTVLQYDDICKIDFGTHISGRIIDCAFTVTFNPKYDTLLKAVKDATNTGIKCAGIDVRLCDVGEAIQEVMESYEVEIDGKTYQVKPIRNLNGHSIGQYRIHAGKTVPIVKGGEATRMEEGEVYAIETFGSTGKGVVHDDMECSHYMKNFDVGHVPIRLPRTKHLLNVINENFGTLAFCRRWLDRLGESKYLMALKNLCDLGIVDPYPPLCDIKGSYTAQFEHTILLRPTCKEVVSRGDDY

Take `CO[C@@H]1[C@H](OC(=O)/C=C/c2ccc(OCCN(C)C)cc2)CC[C@]2(CO2)[C@H]1[C@@]1(C)O[C@@H]1CC=C(C)C` [A, [(3R,6R,7S,8S)-7-methoxy-8-[(2R,3R)-2-methyl-3-(3-methylbut-2-enyl)oxiran-2-yl]-2-oxaspiro[2.5]octan-6-yl] (E)-3-[4-[2-(dimethylamino)ethoxy]phenyl]prop-2-enoate, reference compound]: the inhibition in vivo at 0.3 mg/kg in series [1] (setting [4]) was determined as 18%; in series [2] (setting [5]) it was 20%. Moreover, in series [3] (setting [6]), the “Rat Embryofetal @6 mpk” value is listed as “Positive”.

Regarding `CO[C@@H]1[C@H](OC(=O)N2CC(CCN3CCOCC3)C2)CC[C@]2(CO2)[C@H]1[C@@]1(C)O[C@@H]1CC=C(C)C` [Example 1, (3R,4S,5S,6R)-5-methoxy-4-((2R,3R)-2-methyl-3-(3-methylbut-2-en-1-yl)oxiran-2-yl)-1-oxaspiro[2.5]octan-6-yl 3-(2-morpholinoethyl)azetidine-1-carboxylate], the inhibition in vivo at 0.3 mg/kg in series [1] (setting [4]) stood at 16.8%; in series [2] (setting [5]), 5.7%. Moreover, the inhibition in vivo at 1 mg/kg in series [2] (setting [7]) was 7.7%. The “Rat Embryofetal @6 mpk” value in series [3] (setting [6]) is reported as “Negative”.

Turning to `CO[C@@H]1[C@H](OC(=O)N2CC(CCN3CC(F)(F)C3)C2)CC[C@]2(CO2)[C@H]1[C@@]1(C)O[C@@H]1CC=C(C)C` [Example 2, (3R,4S,5S,6R)-5-methoxy-4-((2R,3R)-2-methyl-3-(3-methylbut-2-enyl)oxiran-2-yl)-1-oxaspiro[2.5]octan-6-yl 3-(2-(3,3-difluoroazetidin-1-yl)ethyl)azetidine-1-carboxylate], the inhibition in vivo at 0.1 mg/kg in series [1] (DIO mouse, 0.1 mpk sc, once a day for 10 days) amounted to 14.2%. The inhibition in vivo at 0.3 mg/kg in series [1] (setting [4]) is 19.7%; in series [2] (setting [5]), 5.7%. The inhibition in vivo at 1 mg/kg in series [1] (setting [8]) is 24.2%; in series [2] (setting [7]), 6.4%. Besides, in series [3] (setting [6]), the “Rat Embryofetal @6 mpk” value is listed as “Negative”.

`CO[C@@H]1[C@H](OC(=O)N2CC(CCN3CC(O)C3)C2)CC[C@]2(CO2)[C@H]1[C@@]1(C)O[C@@H]1CC=C(C)C` [Example 6, (3R,4S,5S,6R)-5-methoxy-4-((2R,3R)-2-methyl-3-(3-methylbut-2-enyl)oxiran-2-yl)-1-oxaspiro[2.5]octan-6-yl 3-(2-(3-hydroxyazetidin-1-yl)ethyl)azetidine-1-carboxylate formate]: in series [1] (Mus musculus, sc), the inhibition in vivo at 0.3 mg/kg came out at 11.8%. Also, in series [2] (Rattus norvegicus, sc), the inhibition in vivo at 0.3 mg/kg was determined as 0.8% and the inhibition in vivo at 1 mg/kg was 4.6%. Moreover, the “Rat Embryofetal @6 mpk” value in series [3] (rat, in vivo) is recorded as “Positive”.

As for `CO[C@@H]1[C@H](OC(=O)N2CC(CCN3CC4C(C3)C4(F)F)C2)CC[C@]2(CO2)[C@H]1[C@@]1(C)O[C@@H]1CC=C(C)C` (stereo partly drawn) [Example 22, (3R,4S,5S,6R)-5-methoxy-4-((2R,3R)-2-methyl-3-(3-methylbut-2-enyl)oxiran-2-yl)-1-oxaspiro[2.5]octan-6-yl 3-(2-(6,6-difluoro-3-azabicyclo[3.1.0]hexan-3-yl)ethyl)azetidine-1-carboxylate formate], in series [1] (Mus musculus, sc), the inhibition in vivo at 0.3 mg/kg was determined as 14%. Besides, in series [3] (rat, in vivo), the “Rat Embryofetal @6 mpk” value is given as “Negative”.

Take `CCN(CC)CC[C@H]1CCN(C(=O)O[C@@H]2CC[C@]3(CO3)[C@@H]([C@@]3(C)O[C@@H]3CC=C(C)C)[C@@H]2OC)C1` [Example 52, (S)-((3R,4S,5S,6R)-5-methoxy-4-((2R,3R)-2-methyl-3-(3-methylbut-2-enyl)oxiran-2-yl)-1-oxaspiro[2.5]octan-6-yl) 3-(2-(diethylamino)ethyl)pyrrolidine-1-carboxylate]: the pIC50 on recombinant human MetAP2 was more than 7.30. The inhibition in vivo at 0.3 mg/kg was determined as 8.3% in series [1] (setting [4]) and 4% in series [2] (setting [5]).

As for `CCN(CC)CC[C@H]1CCN(C(=O)O[C@@H]2CC[C@]3(CO3)[C@@H]([C@@]3(C)O[C@@H]3CC=C(C)C)[C@@H]2OC)C1` [Example 53, (S)-((3R,4S,5S,6R)-5-methoxy-4-((2R,3R)-2-methyl-3-(3-methylbut-2-enyl)oxiran-2-yl)-1-oxaspiro[2.5]octan-6-yl) 3-(2-(diethylamino)ethyl)pyrrolidine-1-carboxylate], the negative-log IC50 (pIC50) at recombinant human MetAP2 was more than 7.30. Besides, the inhibition in vivo at 0.3 mg/kg in series [1] (setting [4]) worked out at 10.9%; in series [2] (setting [5]) it was 3%.

Turning to `CO[C@@H]1[C@H](OC(=O)N2CC(OC(=O)N3CCN(CC(F)(F)F)CC3)C2)CC[C@]2(CO2)[C@H]1[C@@]1(C)O[C@@H]1CC=C(C)C` [Example 81, 1-(((3R,4S,5S,6R)-5-methoxy-4-((2R,3R)-2-methyl-3-(3-methylbut-2-enyl)oxiran-2-yl)-1-oxaspiro[2.5]octan-6-yloxy)carbonyl)azetidin-3-yl 4-(2,2,2-trifluoroethyl)piperazine-1-carboxylate], in series [1] (setting [4]), the inhibition in vivo at 0.3 mg/kg turned out to be 16.9%. Moreover, in series [3] (setting [6]), the “Rat Embryofetal @6 mpk” value is recorded as “Positive”.

Consider `CCNCCC1CN(C(=O)O[C@@H]2CC[C@]3(CO3)[C@@H]([C@@]3(C)O[C@@H]3CC=C(C)C)[C@@H]2OC)C1` [Example 121, (3R,4S,5S,6R)-5-methoxy-4-((2R,3R)-2-methyl-3-(3-methylbut-2-en-1-yl)oxiran-2-yl)-1-oxaspiro[2.5]octan-6-yl3-(2-(ethylamino)ethyl)azetidine-1-carboxylate], for which, on recombinant human MetAP2, the pIC50 was more than 7.30. Moreover, the inhibition in vivo at 0.3 mg/kg in series [1] (setting [4]) is 7.5%; in series [2] (setting [5]), 5%. Besides, the inhibition in vivo at 1 mg/kg in series [1] (setting [8]) came out at 12.6%.

In the case of `CCNC[C@H]1CCN1C(=O)O[C@@H]1CC[C@]2(CO2)[C@@H]([C@@]2(C)O[C@@H]2CC=C(C)C)[C@@H]1OC` [Example 123, (R)-((3R,4S,5S,6R)-5-methoxy-4-((2R,3R)-2-methyl-3-(3-methylbut-2-enyl)oxiran-2-yl)-1-oxaspiro[2.5]octan-6-yl) 2-((ethylamino)methyl)azetidine-1-carboxylate formate], the pIC50 at recombinant human MetAP2 was more than 7.30. For the same compound, the inhibition in vivo at 1 mg/kg in series [1] (setting [8]) was determined as 9.7%; in series [2] (setting [7]), 5.4%. In series [2] (setting [5]), the inhibition in vivo at 0.3 mg/kg came out at 1%.
